Reference: patent US9121022B2, “Method for controlling herbicide-resistant plants” (priority 2010, dated 2015)

Columns and labels:
[1] = system: endogenous Nicotiana benthamiana Argonaute-1 (AGO1) gene; test: AGO1 anti-sense polynucleotides with or without PDS anti-sense polynucleotide, systemic bleaching (Example 33); format: in vivo; settings: PDS 25 nanomoles; AGO1 50 nanomoles of each of 14 polynucleotides; applied on separate leaves
Text: A second set of experiments was designed to investigate the effects of silencing a component of the endogenous RNAi silencing pathway in a plant. Argonaute (AGO) proteins are components of the RNA-induced silencing complex (RISC) which binds small RNAs in the RNAi silencing process. Suppression of Argonaute would be expected to reduce the observed phenotypic effect caused by an RNAi silencing process. AGO1 anti-sense polynucleotides with the sequences […] (HL510, SEQ ID NO:300), […] (HL511, SEQ ID NO:301), […] (HL512, SEQ ID NO:302), […] (HL513, SEQ ID NO:303), […] (HL514, SEQ ID NO:304), […] (HL515, SEQ ID NO:305), […] (HL516, SEQ ID NO:306), […] (HL517, SEQ ID NO:307), […] (HL518, SEQ ID NO:308), […] (HL519, SEQ ID NO:309), […] (HL520, SEQ ID NO:310), […] (HL521, SEQ ID NO:311), […] (HL522, SEQ ID NO:312), […] (HL523, SEQ ID NO:313) were designed for the endogenous Nicotiana benthamiana Argonaute-1 (AGO1) gene, based on two Nicotiana benthamiana AGO1-2 partial cDNA sequences, • […] […] […] […] […] […] […] […] […] […] […] […] […] […] […] […] […] […] […] […] […] […] […] […] […] […] […] […] […] […] […] […] […] […] […] […] […] […] […] […] […] […] […] GC (SEQ ID NO:314) and • […] […] […] […] […] […] […] […] […] […] […] […] […] […] […] […] […] […] […] […] […] […] […] […] […] […] […] […] […] […] […] […] […] […] […] […] […] […] […] […] […] […] […] […] […] […] […] […] (SEQ ID NO:315).
Nicotiana benthamiana plants were treated using a procedure similar to that described in Example 12. […]

[2] = system: Nicotiana benthamiana phytoene desaturase; test: topical PDS oligonucleotides/polynucleotides on tobacco, bleaching and chlorophyll (Example 10); format: in vivo; settings: another assay
Text: The target gene used was a Nicotiana benthamiana phytoene desaturase (SEQ ID NO:2), shown in FIG. 10; the segment consisting of nucleotides 421-1120 of SEQ ID NO:2 (underlined text in FIG. 10) was used to design a 700-mer dsRNA polynucleotide (“PDS 700-mer”) and the segment consisting of nucleotides 914-1113 of SEQ ID NO:2 (bolded underlined text in FIG. 10) was used to design a 200-mer dsRNA polynucleotide (“PDS 200-mer”). FIG. 11 schematically depicts the location of the sequences of these oligonucleotides and polynucleotides in relation to the […] (SEQ ID NO:2) sequence. Non-plant sequences obtained from corn rootworm (“CRW”), SEQ ID NOs:27, 28, 29, and 30 were used as non-homologous controls. Some of the polynucleotides included a T7 promoter sequence (indicated by lower-case text in Table 3) that is a promoter recognized by a bacteriophage T7 RNA polymerase.
The following procedure was used for all assays described in this example. Four-week old Nicotiana benthamiana plants were used in all assays. Plants were treated with 0.1% SILWET L-77® brand surfactant solution freshly made with ddH2O. Two fully expanded leaves per plant (one cotyledon, one true leaf) were dipped into the SILWET L-77® brand surfactant solution for a few seconds, and allowed to dry for 15-30 minutes before application of the polynucleotide composition. Final concentration for each oligonucleotide or polynucleotide was 25 microM (in 0.01% SILWET L-77® brand surfactant, 5 mM sodium phosphate buffer, pH 6.8) unless otherwise stated. 20 microliters of the solution was applied to the top surface of each of the two pre-treated leaves to provide a total of 40 microliters (1 nmol oligonucleotide or polynucleotide) for each plant. Leaf bleaching was observed 3 days post treatment.
FIG. 13 illustrates phenotypes observed at day 12 after treatment in another assay of the effect from twelve combinations of polynucleotides or oligonucleotides (see Table 4). Table 4 also lists observations of visible bleaching of the plants at day 5 after treatment and the results of chlorophyll measurements taken at days 7 and 12 after treatment. Chlorophyll measurements are an indication of suppression of the target gene phytoene desaturase, and measurements were taken at 6 spots on the apical area, focussing on visibly bleached leaves or (in plants without visible bleaching) on leaves in equivalent locations on the plants; lower chlorophyll measurement values indicate suppression of phytoene desaturase.

In the case of “CATCTCCTTTAATTGTACTGC (DNA, backbone not given here) [PDS 21-mer anti-sense ssDNA]”, the “systemic bleaching / difference to buffer” value [1] is reported as “displayed systemic bleaching” and the “bleaching of apical leaves (FIG. 15)” value [2] is reported as “apical leaf bleaching observed”.
